What was measured:
[1] = system: DU-145 (hormone-refractory prostate cancer cells); assay: Resazurin antiproliferative assay, DU-145 cells; format: cell-based, human; conditions: towards HFF-1 cell lines
[2] = system: MDA-MB-231 (triple-negative breast cancer cells); assay: Resazurin antiproliferative assay, MDA-MB-231 cells; format: cell-based, human; conditions: towards HFF-1 cell lines

Compound | Selectivity index (SI = CC50/IC50) HFF-1/DU-145 [1] | Selectivity index (SI = CC50/IC50) HFF-1/MDA-MB-231 [2]
C[C@@H]1C[C@H](c2ccc(Br)cc2)c2c(cc3ccccn23)C(=O)O1 (racemic) [cis-4d] | 0.03 | 0.06
COc1cc(OC)cc([C@H]2C[C@@H](C)OC(=O)c3cc4ccccn4c32)c1 (racemic) [cis-4f] | > 2 | > 5

— publication PMC10321224 (RSC Advances, 2023)
